# Like-named read-outs stand apart in the source and are kept apart here.
# Tests used:
# IKZF3 (Aiolos) = IKZF3 (Aiolos) (Homo sapiens (Human), UniProt Q9UKT9); assay: selectivity by Western blot in MM1S cells, IKZF3; format: cell-based; set-up: key to IKZF3 degradation: A represents a no degradation observed at 30 μM; B represents trace degradation at 30 μM (below 20%); C represents weak degradation at 30 μM (below 50%); D represents degradation at 30 μM (>90%); E represents degradation at 3 μM (>90%); F represents degradation at 0.3 μM (>90%); settings: MM1S cells, 6 hours, 0.3, 3 and 30 μM
# Procedure: (§1) MM1S cells were purchased from ATCC (cat. Number CRL-2974), sub-cultured in 90% RPMI 1640 with 10% FBS, supplemented with 1× P/S and incubated at 37° C., 5% CO2. Compounds were stored as 10 mM DMSO stock. For the assay, MM1S cells (3 million cells/well) were plated in 6-well plates and incubated over night. Cells were treated with respective compounds using a serial dilution: 0.3 μM, 3 μM and 30 μM as well as a vehicle only (DMSO) control for 6 hours. Media with suspension cells was subsequently transferred to 15 mL conical tubes, wells rinsed twice with ice-cold PBS and merged with cell suspension in respective 15 mL conical tube. Cells were spinned down, supernatant aspirated, pellets resuspended in ice-cold PBS and transferred to microtubes. Cells were spinned down, supernatant aspirated and pellets resuspended in 120 μL RIPA lysis buffer supplemented with protease and phosphatase inhibitors. Cell lysates were incubated on ice for 20 minutes followed by centrifugation at >20,000 xg for 5 min. Supernatants were transferred to fresh microtubes and stored at −80° C. Total protein concentration was determined using a BCA assay with a BSA standard curve and concentration of all samples was adjusted to 1 mg/mL. 25 μL 4× LDS sample buffer supplemented with 100 mM DTT was added to 75 μL sample. Samples were centrifuged (8,000 xg, 1 min) and incubated at 95° C. for 5 min followed by another centrifugation step (8,000 xg, 1 min). 20 μL of each sample was loaded on a 4-12% gel alongside a protein molecular weight marker. Gels were run in the presence of MOPS buffer at 80 Volts for 30 min, followed by 120 Volts for 1.5 h and proteins subsequently transferred onto nitrocellulose membranes at 20 Volts for 7 min using an iBlot2 Gel Transfer Device. Membranes were then cut horizontally into two pieces, covering 80-50 kDa and 50-25 kDa. Blocking the membranes was performed by gently shaking in 5% (w/v) skim milk in TSB-T for 1 hr at room temperature. All primary antibodies were used at a 1/1000 in 5% (w/v) BSA dissolved in TBST and incubated with membranes over night at 4° C. Anti-IKZF1 (Ikaros; D6N9Y; 14859S), anti-IKZF3 (Aiolos; D1C1E; 15103S) antibodies were purchased from Cell Signalling Technology, anti-ZFP91 antibody from Bethyl laboratories, anti-GSPT1 from Sigma Aldrich (HPA052488) and anti CK1alpha from AbCam (ab206652). After three washes with 1× TBST for 5 min, HRP-coupled secondary antibodies diluted in 5% (w/v) BSA/TBST (Goat Anti-Rb IgG, dil. 1/10,000; Goat Anti-Mouse IgG, dil. 1/5000) were added for 1 hr at room temperature. After three washes with 1× TBST (5 minutes each), membranes were incubated with ECL reagent for 1 min at room temperature. Chemiluminescence signals were then detected using a LAS-4000 system with default settings and signals quantified using Image Studio Lite software (version 5.2). Membrane parts previously incubated with antibody against CK1alpha were stripped off antibodies by incubating with stripping buffer for 30 minutes followed by three washed with TBST (5 min each), blocking with 5% (w/v) skim milk for 1 hr, and incubation with primary antibody against GAPDH overnight at 4° C. Subsequent washes, incubation with secondary antibody and signal acquisition were performed as described above.
# ZFP91 = ZFP91 (Homo sapiens (Human), UniProt Q96JP5); assay: selectivity by Western blot in MM1S cells, ZFP91; format: cell-based; set-up: key: A represents a no degradation observed at 30 μM; B represents trace degradation at 30 μM (below 20%); C represents weak degradation at 30 μM (below 50%); D represents degradation at 30 μM (>90%); E represents degradation at 3 μM (>90%); F represents degradation at 0.3 μM (>90%); settings: 6 hours, 0.3, 3 and 30 μM
# Procedure: as §1, with “After three washes with 1× TBST (5 minutes each), membranes were incubated with ECL reagent for 1 min at room temperature.” left out, “Membrane parts previously incubated with antibody against CK1alpha were stripped off antibodies by incubating with stripping buffer for 30 minutes followed by three washed with TBST (5 min each), blocking with 5% (w/v) skim milk for 1 hr, and incubation with primary antibody against GAPDH overnight at 4° C. Subsequent washes, incubation with secondary antibody and signal acquisition were performed as described above.” left out
# GSPT1 [1] = biological target: T1, GSPT1 (Homo sapiens (Human), UniProt P15170+Q96SW2); assay: immunofluorescence assay for GSPT1 degradation in CAL-51 cells (Example 4); format: cell-based
# Procedure, shortened: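 CAL-51 cells on fibronectin-coated plates were treated 6 h with serial dilutions (30 μM to 0.1 nM), then fixed and immunostained for GSPT1 with DAPI and phalloidin counterstains. Per-cell mean GSPT1 intensity from high-content imaging, normalized to controls; DC50 by non-linear regression.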
# GSPT1 [2] = biological target: T1, GSPT1; assay: selectivity by Western blot in MM1S cells, GSPT1; format: cell-based; settings: MM1S cells, 6 hours, 0.3, 3 and 30 μM
# Procedure: as §1
# Target sequence in this assay (P15170 whole entry, looked up): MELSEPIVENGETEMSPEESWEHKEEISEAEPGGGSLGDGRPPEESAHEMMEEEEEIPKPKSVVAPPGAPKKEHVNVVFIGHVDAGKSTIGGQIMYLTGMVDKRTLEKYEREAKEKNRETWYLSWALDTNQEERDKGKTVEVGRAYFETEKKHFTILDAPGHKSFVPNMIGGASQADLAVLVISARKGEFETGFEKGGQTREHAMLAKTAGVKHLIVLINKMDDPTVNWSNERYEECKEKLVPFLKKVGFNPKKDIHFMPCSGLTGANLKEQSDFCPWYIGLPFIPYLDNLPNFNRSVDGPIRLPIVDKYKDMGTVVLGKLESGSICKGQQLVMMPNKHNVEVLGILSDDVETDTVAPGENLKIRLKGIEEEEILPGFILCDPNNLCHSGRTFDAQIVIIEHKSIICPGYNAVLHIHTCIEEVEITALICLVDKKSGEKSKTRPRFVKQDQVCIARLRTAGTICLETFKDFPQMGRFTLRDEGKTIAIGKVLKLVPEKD
# Target sequence in this assay (Q96SW2 whole entry, looked up): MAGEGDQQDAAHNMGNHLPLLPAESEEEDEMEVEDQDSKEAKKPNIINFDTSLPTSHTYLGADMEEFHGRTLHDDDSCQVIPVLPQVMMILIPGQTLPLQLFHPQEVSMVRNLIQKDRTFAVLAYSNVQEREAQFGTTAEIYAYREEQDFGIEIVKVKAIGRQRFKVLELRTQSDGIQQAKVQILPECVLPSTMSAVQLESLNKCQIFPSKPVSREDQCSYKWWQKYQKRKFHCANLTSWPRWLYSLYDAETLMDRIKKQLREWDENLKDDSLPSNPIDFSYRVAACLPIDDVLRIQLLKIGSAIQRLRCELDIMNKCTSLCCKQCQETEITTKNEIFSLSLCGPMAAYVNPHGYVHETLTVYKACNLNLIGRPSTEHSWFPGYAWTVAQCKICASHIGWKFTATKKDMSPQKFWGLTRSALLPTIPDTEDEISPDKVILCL
# Target sequence in this assay (Q16531 whole entry partner, looked up): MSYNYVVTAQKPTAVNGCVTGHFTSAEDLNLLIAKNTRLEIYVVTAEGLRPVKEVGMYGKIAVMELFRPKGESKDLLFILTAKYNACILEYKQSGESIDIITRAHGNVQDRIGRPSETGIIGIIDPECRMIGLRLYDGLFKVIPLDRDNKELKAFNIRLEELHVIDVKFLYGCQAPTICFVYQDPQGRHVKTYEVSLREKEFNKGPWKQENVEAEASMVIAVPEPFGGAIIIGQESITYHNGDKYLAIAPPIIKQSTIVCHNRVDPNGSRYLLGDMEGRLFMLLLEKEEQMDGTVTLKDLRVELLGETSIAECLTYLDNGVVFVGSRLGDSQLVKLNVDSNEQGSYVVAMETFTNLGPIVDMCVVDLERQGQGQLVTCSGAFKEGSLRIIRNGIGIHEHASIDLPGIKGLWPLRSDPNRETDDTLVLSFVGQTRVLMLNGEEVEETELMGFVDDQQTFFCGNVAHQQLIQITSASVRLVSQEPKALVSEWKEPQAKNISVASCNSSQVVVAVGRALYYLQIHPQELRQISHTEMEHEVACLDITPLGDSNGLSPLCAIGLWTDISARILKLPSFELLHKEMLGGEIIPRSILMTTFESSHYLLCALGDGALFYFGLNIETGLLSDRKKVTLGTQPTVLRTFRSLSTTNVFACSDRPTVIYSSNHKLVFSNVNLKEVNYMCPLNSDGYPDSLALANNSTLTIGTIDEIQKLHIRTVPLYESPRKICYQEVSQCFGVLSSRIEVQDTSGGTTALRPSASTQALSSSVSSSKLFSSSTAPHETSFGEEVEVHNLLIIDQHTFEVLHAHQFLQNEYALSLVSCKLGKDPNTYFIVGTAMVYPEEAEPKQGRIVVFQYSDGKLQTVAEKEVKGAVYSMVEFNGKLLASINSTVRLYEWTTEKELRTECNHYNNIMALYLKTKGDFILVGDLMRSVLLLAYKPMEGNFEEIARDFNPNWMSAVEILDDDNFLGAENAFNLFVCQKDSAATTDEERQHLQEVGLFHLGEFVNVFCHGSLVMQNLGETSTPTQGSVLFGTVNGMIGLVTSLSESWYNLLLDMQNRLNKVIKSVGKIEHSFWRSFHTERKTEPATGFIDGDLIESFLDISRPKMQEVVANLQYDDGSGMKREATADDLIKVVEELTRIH
# CK1alpha = CK1alpha (Homo sapiens (Human), UniProt P48729); assay: selectivity by Western blot in MM1S cells, CK1alpha; format: cell-based; settings: MM1S cells, 6 hours, 0.3, 3 and 30 μM
# Procedure: as §1
# IKZF1 (Ikaros) = IKZF1 (Ikaros) (Homo sapiens (Human), UniProt Q13422); assay: selectivity by Western blot in MM1S cells, IKZF1; format: cell-based; set-up: key to IKZF1 degradation: A represents a no degradation observed at 30 μM; B represents trace degradation at 30 μM (below 20%); C represents weak degradation at 30 μM (below 50%); D represents degradation at 30 μM (>90%); E represents degradation at 3 μM (>90%); F represents degradation at 0.3 μM (>90%); settings: MM1S cells, 6 hours, 0.3, 3 and 30 μM
# Procedure: as §1
# CRBN-DDB1 = CRBN-DDB1 (Homo sapiens (Human), UniProt Q96SW2); assay: Homogenous Time-Resolved Fluorescence (HTRF) binding assay to CRBN
# Procedure: Compound activity was monitored in a Homogenous Time-Resolved Fluorescence (HTRF) assay using 1-[5-({2-[2-(2-{[2-(2,6-dioxopiperidin-3-yl)-1,3-dioxo-2,3-dihydro-1H-isoindol-4-yl]oxy}acetamido)ethoxy]ethyl}carbamoyl)pentyl]-3,3-dimethyl-2-[(1E,3E)-5-[(2E)-1,3,3-trimethyl-5-sulfo-2,3-dihydro-1H-indol-2-ylidene]penta-1,3-dien-1-yl]-3H-indol-1-ium-5-sulfonate as a fluorescent probe. […] Compounds were stored in dry, ambient temperatures at 10 mM. A 10-point, 1:3 dilution series was prepared from 10 mM stock concentrations in Echo-compatible LDV plates. 10 nL of each compound dilution series was dispensed into assays wells using an Echo 650 (Labcyte inc. USA). […] The assay was then allowed to incubate for 30 min at ambient temperature after transferring compound. […] Analysis and IC50 values were derived using KNIME analytics (KNIME Zurich) transformation and fitting within Collaborative Drug Discovery (Collaborative Drug Discovery USA). Ki was derived from the geometric mean of the IC50 values using the Cheng-Prustoff transformation.
# GSPT1 [3] = biological target: T1, GSPT1; assay: immunofluorescence assay for GSPT1 degradation in CAL-51 cells (Example 10); format: cell-based
# Procedure: The representative compounds were tested in an immunofluorescence assay for their activity to degrade GSPT1. […] Compounds were stored at 10 mM DMSO stocks. […] Cells were subsequently rinsed with PBS and fixed in 10% Formalin solution (50 μl, Sigma HT5011)) for 20 mins at room temperature. […] Following three further PBS washes, 50 μL blocking buffer (1% BSA, Sigma A4503, in PBS) was added for 45 min for signal-to noise reduction. Primary antibody (human GSPT1, Sigma HPA052488) was diluted in blocking buffer (dil.1/300, 35 μL/well) and incubated with the cells overnight at 4° C. […] After three final PBS washes, samples were conserved in 100 μL PBS in the dark, until measurement. Image acquisition was performed on the Operetta High-Content Imager (Perkin-Elmer). […] For the determination of GSPT1 DC50 values, a custom algorithm implemented in the PerkinElmer image analysis software Harmony-Acapella® was developed. After user-defined setting of adjustment parameters, the analysis was run identically without human intervention for all image fields. DAPI staining of the nuclei was used to determine the location of cells using standard nuclei detection modules. Segmentation artifacts were removed by threshold-based filters for area, roundness and intensity. The outline of the cells was determined analogously from the sum of the normalized, smoothed DAPI and Actin channel, starting from each nucleus. […] GSPT1 degradation (DC50) was calculated after normalization to controls and data import in CDD vault Database, using non-linear regression.
# [4] = 6 hours, read-out: Activity for GSPT1 degradation, Code (DC50)
# [5] = GSPT1 degradation, read-out: DC50 value
# [6] = CRBN-DDB1, HTRF, read-out: HTRF Class (HTRF IC50, Cereblon binding)
# [7] = CAL-51 cells, 6 h; read-out: IF Class (GSPT1 degradation DC50)
# Sequence of CRBN-DDB1 (Q96SW2 whole entry): as the sequence (Q96SW2 whole entry, looked up) above
# Sequence of CRBN-DDB1 (Q16531 whole entry partner): as the sequence (Q16531 whole entry partner, looked up) above
# Sequence of IKZF3 (Aiolos) (Q9UKT9 whole entry, looked up): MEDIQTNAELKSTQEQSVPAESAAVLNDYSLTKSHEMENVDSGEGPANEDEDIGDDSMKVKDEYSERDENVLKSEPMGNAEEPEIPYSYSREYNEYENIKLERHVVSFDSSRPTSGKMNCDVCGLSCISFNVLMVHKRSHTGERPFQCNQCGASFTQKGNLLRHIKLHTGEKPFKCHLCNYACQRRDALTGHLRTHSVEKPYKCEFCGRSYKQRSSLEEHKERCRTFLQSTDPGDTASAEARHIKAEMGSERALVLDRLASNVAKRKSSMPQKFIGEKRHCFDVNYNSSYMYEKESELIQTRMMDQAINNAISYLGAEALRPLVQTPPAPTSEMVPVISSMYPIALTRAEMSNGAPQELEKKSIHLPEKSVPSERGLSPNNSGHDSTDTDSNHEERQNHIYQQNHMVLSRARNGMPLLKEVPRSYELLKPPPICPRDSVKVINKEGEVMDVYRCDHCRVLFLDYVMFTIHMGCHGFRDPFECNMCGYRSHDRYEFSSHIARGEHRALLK
# Sequence of ZFP91 (Q96JP5 whole entry, looked up): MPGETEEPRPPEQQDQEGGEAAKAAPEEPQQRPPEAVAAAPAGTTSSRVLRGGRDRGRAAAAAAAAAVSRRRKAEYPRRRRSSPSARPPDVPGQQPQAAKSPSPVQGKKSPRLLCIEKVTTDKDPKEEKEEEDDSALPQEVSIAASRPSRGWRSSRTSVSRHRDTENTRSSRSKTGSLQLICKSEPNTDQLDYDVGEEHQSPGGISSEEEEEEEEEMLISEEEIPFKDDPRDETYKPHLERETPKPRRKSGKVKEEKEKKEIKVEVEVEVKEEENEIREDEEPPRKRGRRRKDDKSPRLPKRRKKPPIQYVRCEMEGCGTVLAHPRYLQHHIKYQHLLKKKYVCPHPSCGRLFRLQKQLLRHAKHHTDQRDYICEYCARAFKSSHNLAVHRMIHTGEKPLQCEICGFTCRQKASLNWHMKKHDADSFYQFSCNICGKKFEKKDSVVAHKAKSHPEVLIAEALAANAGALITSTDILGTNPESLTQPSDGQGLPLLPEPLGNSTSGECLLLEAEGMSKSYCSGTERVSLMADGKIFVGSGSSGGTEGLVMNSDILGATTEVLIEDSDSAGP
# Sequence of IKZF1 (Ikaros) (Q13422 whole entry, looked up): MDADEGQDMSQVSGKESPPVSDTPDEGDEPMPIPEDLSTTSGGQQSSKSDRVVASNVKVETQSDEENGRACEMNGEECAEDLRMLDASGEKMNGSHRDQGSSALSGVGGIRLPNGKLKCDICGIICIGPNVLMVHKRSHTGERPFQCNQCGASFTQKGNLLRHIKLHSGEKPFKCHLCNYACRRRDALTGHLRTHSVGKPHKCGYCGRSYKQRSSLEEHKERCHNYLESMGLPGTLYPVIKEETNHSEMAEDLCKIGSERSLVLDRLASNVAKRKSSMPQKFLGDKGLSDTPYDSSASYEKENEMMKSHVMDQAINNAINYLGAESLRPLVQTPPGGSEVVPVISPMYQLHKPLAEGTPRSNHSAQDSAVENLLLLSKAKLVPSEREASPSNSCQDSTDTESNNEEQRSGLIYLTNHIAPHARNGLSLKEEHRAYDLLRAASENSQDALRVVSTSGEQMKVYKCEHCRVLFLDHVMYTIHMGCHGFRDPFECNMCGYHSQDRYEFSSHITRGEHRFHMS
# Sequence of CK1alpha (P48729 whole entry, looked up): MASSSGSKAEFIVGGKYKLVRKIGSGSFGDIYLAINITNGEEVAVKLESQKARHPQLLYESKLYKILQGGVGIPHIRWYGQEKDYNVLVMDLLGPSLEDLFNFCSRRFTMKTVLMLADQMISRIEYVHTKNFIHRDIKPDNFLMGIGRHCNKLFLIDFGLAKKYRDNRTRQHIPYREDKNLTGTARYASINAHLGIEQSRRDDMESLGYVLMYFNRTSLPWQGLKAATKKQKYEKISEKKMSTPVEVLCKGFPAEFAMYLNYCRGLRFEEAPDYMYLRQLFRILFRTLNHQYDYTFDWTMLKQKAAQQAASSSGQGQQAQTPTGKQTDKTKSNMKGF
IKZF3 degradation (IKZF3 (Aiolos)),DC50 (GSPT1 [1]; [4]),DC50 (GSPT1 [1]; [5]),IKZF1 degradation (IKZF1 (Ikaros)),IC50 (CRBN-DDB1; [6]),DC50 (GSPT1 [3]; [7]),SMILES,ZFP91 degradation (ZFP91),GSPT1 degradation (GSPT1 [2]),CK1alpha degradation (CK1alpha),IC50 (CRBN-DDB1),"DC50 (GSPT1 [3]; read-out: IF Class (GSPT1 degradation DC50); CAL-51 cells, 6 h)"
–,–,–,–,> 1 µM,< 0.03 µM,"Cc1ccc(NC(=O)OCc2ccc3c(c2)C(=O)N([C@H]2CCC(=O)NC2=O)C3)cc1Cl (single isomer, unassigned) [Compound 175]",–,–,–,–,–
A,< 0.03 µM,≤ 0.03 µM,A,–,–,O=C1CCC(N2Cc3ccc(COC(=O)Nc4cccc(OC(F)(F)F)c4)cc3C2=O)C(=O)N1 (stereo not shown) [Compound 3],B (B represents trace degradation at 30 μM (below 20%)),F (F represents degradation at 0.3 μM (>90%)),B (B represents trace degradation at 30 μM (below 20%)),–,–
–,–,–,–,< 0.1 µM,< 0.03 µM,"Cc1ccc(NC(=O)OCc2ccc3c(c2)C(=O)N([C@@H]2CCC(=O)NC2=O)C3)cc1Cl (single isomer, unassigned) [Compound 176]",–,–,–,–,–

# The next lines start with the compound.
SMILES,IKZF3 degradation (IKZF3 (Aiolos)),DC50 (GSPT1 [1]; [4]),DC50 (GSPT1 [1]; [5]),IKZF1 degradation (IKZF1 (Ikaros)),IC50 (CRBN-DDB1; [6]),DC50 (GSPT1 [3]; [7]),ZFP91 degradation (ZFP91),GSPT1 degradation (GSPT1 [2]),CK1alpha degradation (CK1alpha),IC50 (CRBN-DDB1),"DC50 (GSPT1 [3]; read-out: IF Class (GSPT1 degradation DC50); CAL-51 cells, 6 h)"
CC(C)(C)c1ccc(NC(=O)OCc2ccc3c(c2)C(=O)N(C2CCC(=O)NC2=O)C3)cc1 (stereo not shown) [Compound 47],A,< 0.03 µM,≤ 0.03 µM,A,–,–,B (B represents trace degradation at 30 μM (below 20%)),F (F represents degradation at 0.3 μM (>90%)),B (B represents trace degradation at 30 μM (below 20%)),–,–
Cc1c(Cl)cc(NC(=O)OCc2ccc3c(c2)C(=O)N(C2CCC(=O)NC2=O)C3)cc1OCCN1CCOCC1 (stereo not shown) [Compound 48],B (B represents trace degradation at 30 μM (below 20%)),< 0.03 µM,≤ 0.03 µM,A,–,–,–,F (F represents degradation at 0.3 μM (>90%)),B (B represents trace degradation at 30 μM (below 20%)),–,–
COc1cc(C)c(Cl)cc1NC(=O)OCc1ccc2c(c1)C(=O)N(C1CCC(=O)NC1=O)C2 (stereo not shown) [Compound 1],B (B represents trace degradation at 30 μM (below 20%)),< 0.03 µM,≤ 0.03 µM,A,–,–,A,F (F represents degradation at 0.3 μM (>90%)),B (B represents trace degradation at 30 μM (below 20%)),–,–
CCc1ncc(NC(=O)OCc2ccc3c(c2)C(=O)N(C2CCC(=O)NC2=O)C3)cc1C (stereo not shown) [Compound 49],A,< 0.03 µM,≤ 0.03 µM,A,–,–,B (B represents trace degradation at 30 μM (below 20%)),F (F represents degradation at 0.3 μM (>90%)),B (B represents trace degradation at 30 μM (below 20%)),–,–
"COc1ccc(C(F)(F)C23CC(NC(=O)OCc4ccc5c(c4)C(=O)N(C4CCC(=O)NC4=O)C5)(C2)C3)cc1 (stereo not shown) [Compound 214, (2-(2,6-dioxopiperidin-3-yl)-3-oxoisoindolin-5-yl)methyl(3-(difluoro(4-methoxyphenyl)methyl)bicyclo[1.1.1]pentan-1-yl)carbamate]",–,–,–,–,–,–,–,–,–,< 0.1 µM,0.03 to 0.3 µM
